Data taken from the supplement of paper PMC7017272.
± gives the standard deviation of the averaged measurements.

Assays:
Conditions in all cases: treatment time: 3 days
[1] = tested on: UT-SCC-73; test: drug sensitivity score (DSS); higher = more sensitive; extreme values may be limits of the assay
Outline: (§1)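 HPV-negative HNSCC cell lines were plated at 500 cells/well in 384-well plates, either on plastic, on wells coated with Matrigel or Myogel (500 µg/mL), or embedded in Matrigel or Myogel plus rat collagen I. Each compound was tested at five 10-fold concentrations over 3 days. Viability was measured by CellTiter-Glo 2.0 luminescence, and IC50, maximal inhibition and drug sensitivity score came from percent-inhibition dose–response curves fitted in the FIMM pipeline after normalisation to vehicle (0.1% DMSO) and cell-killing control wells.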

[2] = tested on: UT-SCC-81; test: as above
Outline: as §1

[3] = tested on: UT-SCC-42A; test: as above
Outline: as §1

[4] = tested on: UT-SCC-28; test: as above
Outline: as §1

[5] = tested on: UT-SCC-42B; test: as above
Outline: as §1

[6] = tested on: UT-SCC-40; test: as above
Outline: as §1

[7] = tested on: UT-SCC-44; test: as above
Outline: as §1

[8] = tested on: UT-SCC-106A; test: as above
Outline: as §1

[9] = tested on: UT-SCC-8; test: as above
Outline: as §1

[10] = tested on: UT-SCC-73; test: maximal % inhibition of viability relative to DMSO; higher = stronger effect
Experimental: (§2)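 HNSCC cell lines (500 cells/well, 384-well) were cultured on plastic, on top of (2D) or embedded (3D) in Matrigel or human leiomyoma matrix Myogel (500 ug/mL; Myogel 3D mixed with rat collagen I). Cells were treated for 3 days with 5 ten-fold concentrations of each drug, and viability was read by CellTiter-Glo. Viability was normalised to DMSO and benzethonium chloride controls and fitted with the FIMM DSRT pipeline to give IC50 (nM), maximal % inhibition and DSS. Suffixes _1/_2/_3 are replicates. Only inhibition-mode (IC50) fits are kept.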

[11] = tested on: UT-SCC-81; test: as above
Experimental: as §2

[12] = tested on: UT-SCC-42A; test: as above
Experimental: as §2

[13] = tested on: UT-SCC-28; test: as above
Experimental: as §2

[14] = tested on: UT-SCC-42B; test: as above
Experimental: as §2

[15] = tested on: UT-SCC-40; test: as above
Experimental: as §2

[16] = tested on: UT-SCC-44; test: as above
Experimental: as §2

[17] = tested on: UT-SCC-106A; test: as above
Experimental: as §2

[18] = tested on: UT-SCC-8; test: as above
Experimental: as §2

[19] = tested on: UT-SCC-14; test: as above
Experimental: as §2

[20] = tested on: UT-SCC-24B; test: as above
Experimental: as §2

[21] = culture condition: embedded in Matrigel
[22] = culture condition: embedded in Myogel + collagen I
[23] = culture condition: on top of Matrigel
[24] = culture condition: on top of Myogel
[25] = culture condition: plastic 2D (no matrix)

Cn1c(=O)n(-c2ccc(C(C)(C)C#N)cc2)c2c3cc(-c4cnc5ccccc5c4)ccc3ncc21 [Dactolisib]
drug sensitivity score [1, 21]: 0 DSS
drug sensitivity score [1, 22]: 0 DSS
drug sensitivity score [1, 23]: 0 DSS
drug sensitivity score [1, 24]: 0 DSS
drug sensitivity score [1, 25]: 0 DSS
drug sensitivity score [2, 21]: 3.7 ± 3.4 DSS
drug sensitivity score [2, 22]: 0 DSS
drug sensitivity score [2, 23]: 0 DSS
drug sensitivity score [2, 24]: 0 DSS
drug sensitivity score [2, 25]: 0 DSS
drug sensitivity score [3, 21]: 0 DSS
drug sensitivity score [3, 22]: 0 DSS
drug sensitivity score [3, 23]: 0 DSS
drug sensitivity score [3, 24]: 0 DSS
drug sensitivity score [3, 25]: 0 DSS
drug sensitivity score [4, 21]: 0 DSS
drug sensitivity score [4, 22]: 0.133 ± 0.23 DSS
drug sensitivity score [4, 23]: 0.1 ± 0.17 DSS
drug sensitivity score [4, 25]: 0 DSS
drug sensitivity score [5, 21]: 0 DSS
drug sensitivity score [5, 23]: 0 DSS
drug sensitivity score [5, 24]: 0 DSS
drug sensitivity score [5, 25]: 0 DSS
drug sensitivity score [6, 21]: 0.5 ± 0.87 DSS
drug sensitivity score [6, 22]: 0 DSS
drug sensitivity score [6, 23]: 0 DSS
drug sensitivity score [6, 24]: 0 DSS
drug sensitivity score [6, 25]: 0 DSS
drug sensitivity score [7, 21]: 0 DSS
drug sensitivity score [7, 22]: 0 DSS
drug sensitivity score [7, 23]: 0 DSS
drug sensitivity score [7, 24]: 0 DSS
drug sensitivity score [7, 25]: 0.9 ± 1.6 DSS
drug sensitivity score [8, 21]: 0 DSS
drug sensitivity score [8, 22]: 0 DSS
drug sensitivity score [8, 23]: 0 DSS
drug sensitivity score [8, 24]: 0 DSS
drug sensitivity score [8, 25]: 0.0333 ± 0.058 DSS
drug sensitivity score [9, 21]: 0 DSS
drug sensitivity score [9, 22]: 0.6 ± 0.66 DSS
drug sensitivity score [9, 23]: 0 DSS
drug sensitivity score [9, 24]: 0.133 ± 0.15 DSS
drug sensitivity score [9, 25]: 0 DSS
maximal % inhibition of viability [10, 21]: 11.8 ± 3.4%
maximal % inhibition of viability [10, 22]: 40.1 ± 8.9%
maximal % inhibition of viability [10, 23]: 9.33 ± 2.9%
maximal % inhibition of viability [10, 24]: 8.23 ± 2.8%
maximal % inhibition of viability [10, 25]: 1.63 ± 0.76%
maximal % inhibition of viability [11, 21]: 40.7 ± 33%
maximal % inhibition of viability [11, 22]: 7.33 ± 3.7%
maximal % inhibition of viability [11, 23]: 5.13 ± 5.4%
maximal % inhibition of viability [11, 24]: 11.2 ± 3.1%
maximal % inhibition of viability [11, 25]: 6.5 ± 2.2%
maximal % inhibition of viability [12, 21]: 0.767 ± 1.3%
maximal % inhibition of viability [12, 22]: 6.03 ± 5.7%
maximal % inhibition of viability [12, 23]: 9.57 ± 4.9%
maximal % inhibition of viability [12, 24]: 4.37 ± 2.7%
maximal % inhibition of viability [12, 25]: 8.8 ± 3.1%
maximal % inhibition of viability [13, 21]: 19.7 ± 5%
maximal % inhibition of viability [13, 22]: 9.5 ± 12%
maximal % inhibition of viability [13, 23]: 13.3 ± 2.7%
maximal % inhibition of viability [13, 25]: 8.33 ± 5.8%
maximal % inhibition of viability [14, 21]: 12.9 ± 6%
maximal % inhibition of viability [14, 23]: 10.9 ± 6.9%
maximal % inhibition of viability [14, 24]: 6.13 ± 1.8%
maximal % inhibition of viability [14, 25]: 1.67 ± 0.57%
maximal % inhibition of viability [15, 21]: 18.2 ± 15%
maximal % inhibition of viability [15, 22]: 8.93 ± 7.8%
maximal % inhibition of viability [15, 23]: 9.4 ± 3.6%
maximal % inhibition of viability [15, 24]: 7.2 ± 4.8%
maximal % inhibition of viability [15, 25]: 2.4 ± 2.4%
maximal % inhibition of viability [16, 21]: 12.5 ± 9.3%
maximal % inhibition of viability [16, 22]: 13.2 ± 23%
maximal % inhibition of viability [16, 23]: 13.7 ± 2.4%
maximal % inhibition of viability [16, 24]: 12.8 ± 4.1%
maximal % inhibition of viability [16, 25]: 16.8 ± 4.5%
maximal % inhibition of viability [17, 21]: 3.67 ± 0.31%
maximal % inhibition of viability [17, 22]: 7.53 ± 8.4%
maximal % inhibition of viability [17, 23]: 4.43 ± 3.8%
maximal % inhibition of viability [17, 24]: 5.1 ± 8.8%
maximal % inhibition of viability [17, 25]: 7.07 ± 3.2%
maximal % inhibition of viability [18, 21]: 8.63 ± 5.4%
maximal % inhibition of viability [18, 22]: 18.3 ± 10%
maximal % inhibition of viability [18, 23]: 13.2 ± 5.7%
maximal % inhibition of viability [18, 24]: 9.7 ± 6.6%
maximal % inhibition of viability [18, 25]: 6.9 ± 6.6%
maximal % inhibition of viability [19, 21]: 16.8 ± 19%
maximal % inhibition of viability [19, 22]: 16.2 ± 15%
maximal % inhibition of viability [19, 23]: 7.17 ± 5.8%
maximal % inhibition of viability [19, 24]: 7.03 ± 7.9%
maximal % inhibition of viability [19, 25]: 11.7 ± 10%
maximal % inhibition of viability [20, 21]: 77.4 ± 0.93%
maximal % inhibition of viability [20, 22]: 83.8 ± 1.4%
maximal % inhibition of viability [20, 23]: 78.6 ± 1.1%
maximal % inhibition of viability [20, 24]: 78.2 ± 1.9%
maximal % inhibition of viability [20, 25]: 76.2 ± 2.5%
